Test results taken from patent publication US12030896B2, “PIKfyve inhibitors” (Mayo Foundation for Medical Education and Research, priority 2018, dated 2024).

What was measured:
U251 glioblastoma cells = test: LC3 / p62 western blotting (autophagy); assay type: cell-based, human
Protocol: Macroautophagy (hereafter “autophagy”) is a process that requires precise fusion of endosomes, autophagosomes, and lysosomes. Lysates from cells treated with Example 1 were prepared and probed by western blotting for LC3-I and LC3-II. Increased levels of LC3-II and increased p62 (sequestesome) were found showing the increased drive to undergo autophagy, in the face of inability to complete the process (i.e. ineffective autophagy). Lysosomes are the final destination of proteins destined for degradation by autophagy, and proteolysis in this organelle depends upon cathepsins among other enzymes.
FIG. 23 contains images showing induction of autophagy the Example 1 as evidenced by accumulation of LC3 over time. U251 glioblastoma cells were treated with 25, 500, or 20,000 nM MC042 for the indicated time periods, and then lysates prepared and blotted for LC3 and tubulin (loading control). Starting a t 6 hours, and becoming more evident by 24 hours, LC3-II (the lower band marked LC3) accumulated, indicating activation of autophagy.

RKO (colon cancer) cells = test: LC3 western blotting (autophagy); assay type: cell-based; conditions: 1 μM

For Cc1ccc(Nc2nc(N/N=C/c3c[nH]c4ccccc34)nc(N3CCOCC3)n2)cc1 [Example 1, (E)-4-(2-((1H-indol-3-yl)methylene)hydrazinyl)-6-morpholino-N-(p-tolyl)-1,3,5-triazin-2-amine], the “induction of LC3” value (U251 glioblastoma cells; 1 μM) was “less robust”, the p62 degradation (U251 glioblastoma cells; 25, 500, or 20,000 nM) was “not degraded” and the LC3-II level (U251 glioblastoma cells; 25, 500, or 20,000 nM, starting at 6 hours, more evident by 24 hours) was “accumulated”. The “induction of LC3” value (RKO (colon cancer) cells) was “dramatic and rapid induction”.
